# Results published in PubChem BioAssay AID1845219 (Molecular Pharmacology Branch, DTP, NCI, 2023).
# pIC50: −log10 of the molar value.
# Tested on: SYO-1 tumor spheroids, viability % test/control
# Experiment: Anticancer human tumor SYO-1 cell line growth inhibition;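 also: spheroids exposed to agents for 7 days before viability read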;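 as to viability, T/C: 100% = DMSO vehicle control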
# Settings: spheroids with HUVEC and MSC; for pIC50: curve of first compound; for viability, T/C: stronger effect = lower value
# Excerpt: Multicellular complex tumor spheroid response to DNA repair inhibitors in combination with DNA-damaging drugs
# This study explores the anticancer activities of DNA-damaging drugs and inhibitors of DNA damage repair, both as single agents and in combinations. Complex tumor spheroids comprised of malignant cells, endothelial cells and mesenchymal stem cells served as an in vitro model for human solid tumors. This model system incorporates physiologically relevant features and patient-derived or established malignant cell lines with clinically relevant genetic alterations from many tumor types. Twenty-six patient-derived or established malignant cell lines were evaluated representing sarcoma, melanoma, small cell lung cancer (SCLC), non-small cell lung cancer (NSCLC), as well as bladder, ovarian and pancreatic cancers. The concentration ranges selected for each drug and investigational agent were based upon clinically achievable concentrations if the clinical Cmax of the agent was known.
# Compounds. The drugs and compounds olaparib (NSC753686), talazoparib (NSC767125), berzosertib (NSC777718), elimusertib (NSC800525), nedisertib (NSC802822), VX-984 (NSC792969), AZD-1390 (NSC803789), temozolomide (NSC362856), topotecan (NSC609699), trabectedin (NSC813783), staurosporine (NSC755774), and gemcitabine (NSC613327) were obtained from the National Cancer Institute (NCI) Developmental Therapeutics Program Chemical Repository. The FDA-approved anticancer drug set is available from the Developmental Therapeutics Program at https://dtp.cancer.gov/organization/dscb/obtaining/available_plates.htm. […] The stock solutions were prepared in dimethyl sulfoxide (DMSO, Sigma-Aldrich, St. Louis, MO, cat. D2650) at 400-fold the tested concentration and stored at -70 degrees C. Prior to their use, the stock solutions were diluted in fresh medium and the final DMSO concentration in the assay was 0.25% (v/v). All drugs and investigational agents were tested over a range starting from a high concentration at or near the clinical Cmax and decreasing in half-log increments. If the clinical Cmax for an agent had not been determined, the highest concentration tested was 10 microM.
# Cell Lines. The patient-derived cancer cell (PDC) lines: 156681-154-R-J1-PDC, 283228-195-R-J1-PDC, 287954-098-R-J1-PDC, 292921-168-R-J2-PDC, 349418-098-R-PDC, 425362-245-T-J1-PDC, 556581-035-R-J1-PDC, and BL0293-F563-PDC were received from the NCI Patient-Derived Models Repository (PDMR, https://pdmr.cancer.gov). The established cell lines HS-SY-2 (RRID:CVCL_8719), MPNST, and SYO-1 (RRID:CVCL_7146) were obtained from the Sloan Kettering Institute. The alveolar soft parts sarcoma cell line ASPS-1 (RRID:CVCL_S738) was established at the NCI and grown from internal seed stocks. The following established cell lines were purchased from the American Type Culture Collection (ATCC, Manassas, VA): G-401 (ATCC, cat. CRL-1441, RRID:CVCL_0270), SW982 (ATCC, cat. HTB-93, RRID:CVCL_1734), VA-ES-BJ (ATCC, cat. CRL-2138, RRID:CVCL_1785), NCI-H719 (ATCC, cat. CRL-5837, RRID:CVCL_1582), NCI-H196 (ATCC, cat. CRL-5823, RRID:CVCL_1509), NCI-H841 (ATCC, cat. CRL-5845, RRID:CVCL_1595), NCI-H1618 (ATCC, cat. CRL-5879, RRID:CVCL_1480), NCI-H1876 (ATCC, cat. CRL-5902, RRID:CVCL_1503), DMS 114 (ATCC, cat. CRL-2066; RRID:CVCL_1174), NCI-H211 (ATCC, cat. CRL-5824; RRID:CVCL_1529), and SW 1271 (ATCC, cat. CRL-2177, RRID:CVCL_1716). The small cell lung cancer cell line COR-L88 was purchased from Sigma-Aldrich (cat. 92031917-1VL, RRID:CVCL_1141). The non-small cell lung cancer cell lines NCI-H226 (RRID:CVCL_1544) and NCI-H322M (RRID:CVCL_1557) were established at the NCI and grown from internal seed stocks. Pooled donor human umbilical vein endothelial cells (HUVEC, Lonza, cat. CC-2519) and human mesenchymal stem cells (hMSC, Lonza, cat. PT-2501) were purchased from Lonza (Walkersville, MD).
# Cell Culture. All cells were maintained in an incubator at 37 degrees C and 5% CO2 with 95% humidity. […]
# [1] = second compound 30 pM, first compound 0.0949 µM
# [2] = second compound 30 pM, first compound 0.3 µM
# [3] = second compound 30 pM, first compound 0.949 µM
# [4] = second compound 30 pM, first compound 3 µM
# [5] = second compound 94.9 pM, first compound 0.0949 µM
# [6] = second compound 94.9 pM, first compound 0.3 µM
# [7] = second compound 94.9 pM, first compound 0.949 µM
# [8] = second compound 94.9 pM, first compound 3 µM
# [9] = second compound 0.0003 µM, first compound 0.0949 µM
# [10] = second compound 0.0003 µM, first compound 0.3 µM
# [11] = second compound 0.0003 µM, first compound 0.949 µM
# [12] = second compound 0.0003 µM, first compound 3 µM
# [13] = second compound 0.000949 µM, first compound 0.0949 µM
# [14] = second compound 0.000949 µM, first compound 0.3 µM
# [15] = second compound 0.000949 µM, first compound 0.949 µM
# [16] = second compound 0.000949 µM, first compound 3 µM
# [17] = second compound 0.003 µM, first compound 0.0949 µM
# [18] = second compound 0.003 µM, first compound 0.3 µM
# [19] = second compound 0.003 µM, first compound 0.949 µM
# [20] = second compound 0.003 µM, first compound 3 µM
Compound,pIC50 (second compound 30 pM),pIC50 (second compound 94.9 pM),pIC50 (second compound 0.0003 µM),pIC50 (second compound 0.000949 µM),pIC50 (second compound 0.003 µM),"viability, T/C [1] [%]","viability, T/C [2] [%]","viability, T/C [3] [%]","viability, T/C [4] [%]","viability, T/C [5] [%]","viability, T/C [6] [%]","viability, T/C [7] [%]","viability, T/C [8] [%]","viability, T/C [9] [%]","viability, T/C [10] [%]","viability, T/C [11] [%]","viability, T/C [12] [%]","viability, T/C [13] [%]","viability, T/C [14] [%]","viability, T/C [15] [%]",further results
O=C(c1cc(Cc2n[nH]c(=O)c3ccccc23)ccc1F)N1CCN(C(=O)C2CC2)CC1 + COc1cc2c(cc1O)CCNC21CSC2c3c(OC(C)=O)c(C)c4c(c3C(COC1=O)N1C(O)C3Cc5cc(C)c(OC)c(O)c5C(C21)N3C)OCO4,5.80,6.24,> 7.02,> 7.02,> 7.02,101,92.3,84.7,7.77,85.9,79.7,27.2,4.14,6.93,3.52,2.62,1.83,0.91,0.86,0.95,"viability, T/C (second compound 30 pM, first compound 9.49 µM): 2.16%; viability, T/C (second compound 30 pM, first compound 30 µM): 1.89%; viability, T/C (second compound 94.9 pM, first compound 9.49 µM): 1.87%; viability, T/C (second compound 94.9 pM, first compound 30 µM): 1.22%; viability, T/C (second compound 0.0003 µM, first compound 9.49 µM): 1.18%; viability, T/C (second compound 0.0003 µM, first compound 30 µM): 1.45%; viability, T/C [16]: 0.68%; viability, T/C (second compound 0.000949 µM, first compound 9.49 µM): 0.61%; viability, T/C (second compound 0.000949 µM, first compound 30 µM): 0.39%; viability, T/C [17]: 3.53%; viability, T/C [18]: 0.25%; viability, T/C [19]: 0.21%; viability, T/C [20]: 0.22%; viability, T/C (second compound 0.003 µM, first compound 9.49 µM): 0.24%; viability, T/C (second compound 0.003 µM, first compound 30 µM): 0.31%"
Cn1ncnc1[C@H]1c2n[nH]c(=O)c3cc(F)cc(c23)N[C@@H]1c1ccc(F)cc1 + COc1cc2c(cc1O)CCNC21CSC2c3c(OC(C)=O)c(C)c4c(c3C(COC1=O)N1C(O)C3Cc5cc(C)c(OC)c(O)c5C(C21)N3C)OCO4,> 8.02,> 8.02,> 8.02,> 8.02,> 8.02,3.42,2.17,1.14,1.2,2.32,1.61,1.11,1.06,1.38,1.22,1.37,0.93,0.78,0.83,0.68,"viability, T/C (second compound 30 pM, first compound 0.00949 µM): 40.6%; viability, T/C (second compound 30 pM, first compound 0.03 µM): 8.47%; viability, T/C (second compound 94.9 pM, first compound 0.00949 µM): 9.24%; viability, T/C (second compound 94.9 pM, first compound 0.03 µM): 3.72%; viability, T/C (second compound 0.0003 µM, first compound 0.00949 µM): 1.89%; viability, T/C (second compound 0.0003 µM, first compound 0.03 µM): 1.72%; viability, T/C (second compound 0.000949 µM, first compound 0.00949 µM): 0.99%; viability, T/C (second compound 0.000949 µM, first compound 0.03 µM): 0.87%; viability, T/C [16]: 0.57%; viability, T/C (second compound 0.003 µM, first compound 0.00949 µM): 0.13%; viability, T/C (second compound 0.003 µM, first compound 0.03 µM): 0.14%; viability, T/C [17]: 0.13%; viability, T/C [18]: 0.14%; viability, T/C [19]: 0.52%; viability, T/C [20]: 0.24%"
